US7279502B2, “Polyamine analog conjugates and quinone conjugates as therapies for cancers and prostate diseases” (Cellgate, Inc., priority 1999, dated 2007)
Where two headings read alike, the source gives them in different places.

Columns and labels:
Type in all cases: cell-based
[1] = tested on: human prostate adenocarcinoma cell line PC-3; test: MTT assay, quinones, PC-3; settings: Table 3, treatment time not given in cell, read-out: ID50 PC-3
Protocol: (§1) Cell Culture: The human lung adenocarcinoma cell line, A549, and human prostatic cancer cell line, DUPRO, were a gift from Dr. M. Eileen Dolan, University of Chicago, Department of Medicine. A549 was grown in Ham's F-12K medium (Fisher Scientific, Itasca, Ill.) supplemented with 10% fetal bovine serum and 2 mM L-glutamine. DUPRO was grown in RPMI-1640 supplemented with 10% fetal bovine serum. The human colon carcinoma cell line, HT29, and the human breast carcinoma cell line, MCF7, were obtained from the American Type Culture Collection, Rockville, Md. HT29 cells were grown in McCoy's 5A medium (Gibco, BRL, Gaithersburg, Md.) supplemented with 10% fetal bovine serum. MCF7 cells were grown in Richter's Improved Modified Eagle's medium supplemented with 10% fetal bovine serum and 2.2 g/L sodium bicarbonate. The human prostate adenocarcinoma cell lines, LNCAP, PC-3 and DU145, were gifts from Dr. George Wilding, University of Wisconsin Comprehensive Cancer Center and the Department of Medicine, and were grown in Dulbecco's Modified Eagle's medium supplemented with a 5% fetal bovine serum. The malignant glioma cell line, U251MG NCI was obtained from the brain tumor tissue bank at the University of California, San Francisco Department of Neurosurgery, and was grown in Dulbecco's Modified Eagle's medium supplemented wth 10% fetal bovine serum. DUPRO, A549 and MCF7 cells were grown in 100 units/mL penicillin and 100 μg/mL streptomycin. HT29 and U251MG NCI cells were grown in 50 μg/mL gentamycin. LNCAP, PC-3 and DU145 cells were maintained in 1% antibiotic antimycotic solution (Sigma, St. Louis, Mo.). All cell cultures were maintained at 37° C. in 5% CO2/95% humidified air.
(§2) MTT assay. Exponentially growing monolayer cells were plated in 96 well plates at a density of 500 cells/well and allowed to grow for 24 h. Serially diluted drug solutions were added such that the final drug concentrations in the treatment media were between 0 and 35 μM. Cells were incubated with drug at either 4 hr or 72 hr. After 4 hr and 72 hr treatment, drugs were removed, fresh media (without) drug (100 uL) was added and cells were incubated for 6 days. After six days, 25 μL of a Dulbecco's phosphate-buffered saline solution containing 5 mg/mL of MTT (Thiazolyl blue) (Sigma) was added to each well and incubated for 4 h at 37° C. Then 100 μL of lysis buffer (20% sodium dodecyl sulfate, 50% N,N-dimethylformamide and 0.8% acetic acid, pH 4.7) was added to each well and incubated for an additional 22 h. A microplate reader (E max, Molecular Devices, Sunnyvale, Calif.) set at 570 nm was used to determine the optical density. Results were plotted as a ratio of the optical density in drug treated wells to the optical density in wells treated with vehicle alone. Plotting and estimation of ID50 values were accomplished with manufacturer supplied software. The data is presented below in Tables 3, 4, 5 and 6.

[2] = tested on: human prostate cancer cells PC3; test: MTT assay, polyamine analogs, PC3; settings: PC-3, survival of cultured PC3 cells, figure legends, read-out: ED50 (the source's name)
Protocol: (§3) Human breast cancer cell line MCF7 was grown in Richter's Improved Modified Eagle's Medium supplemented with 10% fetal bovine serum (FBS) and 2.2 g/L sodium bicarbonate. Human brain tumor cell line U251 MG-NCI was grown in Dulbecco's Modified Eagle's Medium supplemented with 10% FBS. Human lung cancer cell line A549 was grown in Ham's F-12K medium (Cellgro, Mediatech, Inc., VA), supplemented with 10% FBS and 2 mM L-glutamine. Human colon cancer cell line HT29 was cultured in McCoy's 5A medium (Gibco, BRL, Gaithersburg, Md.) supplemented with 10% FBS. Human prostate cancer cell lines PC-3, LNCAP and DuPro were grown in RPMI 1640 Medium (Cellgro, Mediatech, Inc., VA) supplemented with 10% FBS. Another human prostate cancer cell line DU145 was grown in Dulbecco's Modified Eagle's Medium (Gibco, BRL, Gaithersburg, Md.) supplemented with 5% FBS. The A549, MCF7, PC3, LNCAP and DuPro cell lines were cultured in 100 units/mL penicillin and 100 μg/mL streptomycin. HT29 and U251MG cell lines were grown in 50 μg/mL gentamycin (Gibco, BRL, Gaithersburg, Md.). DU145 cell line was maintained in 1% antibitic-antimycotic solution (Sigma, St. Louis, Mo.). The cell cultures were maintained at 37° C. in 5% CO2/95% humidified air. DuPro cells were obtained from M. Eileen Dolan, University of Chicago. All other cells are available from the American Type Culture Collection, Rockville, Md.
(§4) A conventional MTT assay was used to evaluate percent cell survival. Exponentially growing monolayer cells were plated in 96-well plates at a density of 500 cells per well and allowed to grow for 24 hours. Serial dilutions of the drugs were added to the wells. Six days after drug treatment, 25 μl of MTT solution (5 mg/ml) was added to each well and incubated for 4 hours at 37° C. Then 100 μl of lysis buffer (20% sodium dodecyl sulfate, 50% DMF, and 0.8% acetic acid, pH 4.7) was added to each well and incubated for an additional 22 hours. A microplate reader (“EMAX”-brand, Molecular Devices, Sunnyvale, Calif.) set at 570 nm was used to determine the optical density of the cultures. Results are expressed as a ratio of the optical density in drug-treated wells to the optical density in wells treated with vehicle only.

[3] = tested on: human prostate cancer cells DU145; test: MTT assay, polyamine analogs, DU145; settings: Homo sapiens; for IC50: DU-145, 144 h, read-out: concentration needed for 50% growth inhibition (ID50) DU-145, Table 2, MTT six days after drug treatment; for EC50: DU-145, survival of cultured DU145 cells, figure legends, read-out: ED50 (the source's name)
Protocol: as §3, §4

[4] = tested on: human colon cancer cells HT29; test: MTT assay, polyamine analogs, HT29; settings: for IC50: HT-29, 144 h, read-out: concentration needed for 50% growth inhibition (ID50) HT-29, Table 2, MTT six days after drug treatment; for EC50: HT-29, survival of cultured HT29 cells, figure legends, read-out: ED50 (the source's name)
Protocol: (§5) As shown in Table 2 and FIGS. 1-32, several novel conformationally restricted polyamine analogs were tested for anti-proliferative properties against cancer cells.
as §3, §4

[5] = tested on: human lung cancer cells A549; test: MTT assay, polyamine analogs, A549; settings: for EC50: A549, survival of cultured A549 cells, figure legends, read-out: ED50 (the source's name)
Protocol: as §5, §3, §4

[6] = tested on: human breast cancer cells MCF7; test: MTT assay, polyamine analogs, MCF7; settings: for IC50: MCF7, 144 h, read-out: concentration needed for 50% growth inhibition (ID50) MCF7, Table 2, MTT six days after drug treatment; for EC50: MCF7, survival of cultured MCF7 cells, figure legends, read-out: ED50 (the source's name)
Protocol: as §5, §3, §4

[7] = tested on: human brain tumor cells U251 MG NCI; test: MTT assay, polyamine analogs, U251 MG NCI; settings: for IC50: U-251, 144 h, read-out: concentration needed for 50% growth inhibition (ID50) U251MG, Table 2, MTT six days after drug treatment; for EC50: U-251, survival of cultured U251 MG NCI cells, figure legends, read-out: ED50 (the source's name)
Protocol: as §3, §4

[8] = tested on: human prostate cancer cells DUPRO; test: MTT assay, polyamine analogs, DUPRO; settings: Homo sapiens, DuPro; for IC50: 144 h, read-out: concentration needed for 50% growth inhibition (ID50) DUPRO, Table 2, MTT six days after drug treatment
Protocol: as §3, §4

[9] = tested on: human breast carcinoma cell line, MCF7; test: MTT assay, quinones, MCF7; settings: Table 4, treatment time not given in cell, read-out: ID50 Breast MCF7
Protocol: as §1, §2

[10] = tested on: human prostate cancer cells LNCAP; test: MTT assay, polyamine analogs, LNCAP; settings: Homo sapiens, LNCaP, survival of cultured LNCAP cells, figure legends; read-out: ED50 (the source's name)
Protocol: as §3
A conventional MTT assay was used to evaluate percent cell survival. Exponentially growing monolayer cells were plated in 96-well plates at a density of 500 cells per well and allowed to grow for 24 hours. Serial dilutions of the drugs were added to the wells. Six days after drug treatment, 25 μl of MTT solution (5 mg/ml) was added to each well and incubated for 4 hours at 37° C. […] A microplate reader (“EMAX”-brand, Molecular Devices, Sunnyvale, Calif.) set at 570 nm was used to determine the optical density of the cultures. Results are expressed as a ratio of the optical density in drug-treated wells to the optical density in wells treated with vehicle only.

[11] = Homo sapiens, A549, 144 h, read-out: concentration needed for 50% growth inhibition (ID50) A549, Table 2, MTT six days after drug treatment

IC50 [1] | IC50 [3] | IC50 [4] | IC50 [5, 11] | IC50 [6] | Compound | EC50 [2] | EC50 [3] | EC50 [4] | EC50 ([5]; Homo sapiens) | EC50 [6] | IC50 [7] | EC50 [7] | also measured
– | 12600 nM | 28800 nM | > 31200 nM | > 31.2 µM | CCNCCCNCc1ccccc1CNCCCNCC [SL-11094] | > 31200 nM | 15400 nM | 28800 nM | > 31200 nM | > 31.2 µM | > 31200 nM | > 31200 nM | –
– | 27 nM | 730 nM | 12400 nM | > 31.2 µM | CCNCCCCNC/C=C\CNCCCCNCC [SL-11102] | > 31200 nM | 30 nM | 730 nM | 150 nM | > 31.2 µM | 150 nM | 150 nM | IC50 [8]: 150 nM; EC50 ([8]; survival of cultured DUPRO cells, figure legends, read-out: ED50 (the source's name)): 150 nM
– | 14 nM | 1000 nM | – | 26.3 µM | CCNCCCCNCC1CCC1CNCCCCNCC (stereo not shown) [SL-11099] | 2500 nM | 14 nM | 1000 nM | 510 nM | 26.3 µM | 110 nM | 110 nM | IC50 ([5]; read-out: concentration needed for 50% growth inhibition (ID50) A549, Table 2, MTT six days after drug treatment): 650 nM
– | 18 nM | 400 nM | 510 nM | – | CCNCCCCNCC1CC1CNCCCCNCC (stereo not shown) [SL-11098] | – | – | – | – | – | 100 nM | – | IC50 [8]: 80 nM
– | 9400 nM | 25800 nM | 430 nM | > 31.2 µM | CCNCCCCNCc1ccccc1CNCCCCNCC [SL-11104] | > 31200 nM | 9400 nM | 25800 nM | > 31200 nM | > 31.2 µM | 14700 nM | 14700 nM | –

Second part, the compound before the results:

Compound | IC50 [1] | IC50 [3] | IC50 [4] | IC50 [5, 11] | IC50 [6] | EC50 [2] | EC50 [3] | EC50 [4] | EC50 ([5]; Homo sapiens) | EC50 [6] | IC50 [7] | EC50 [7] | also measured
NCCCCCC(=O)OCCCCCCOC1=CC(=O)C(=O)c2ccccc21 [SL-11075] | 2 µM | – | – | – | – | – | – | – | – | – | – | – | –
N#Cc1ccc(OCCCCCCOC2=CC(=O)C(=O)c3ccccc32)cc1 [SL-11062] | 1.71 µM | – | – | – | – | – | – | – | – | – | – | – | –
CCCCN(CC1=CC(=O)C(=O)c2ccccc21)C(=O)C(F)(F)F [SL-11088] | > 31.2 µM | – | – | – | – | – | – | – | – | – | – | – | IC50 [9]: > 31.2 µM
CCNCCCCNCC1CC1CNCCCCNCC (stereo not shown) [SL-11093] | – | – | – | – | – | 1600 nM | 16 nM | 400 nM | 260 nM | – | – | 70 nM | EC50 [10]: 210 nM
CCCCN(CC1=CC(=O)C(=O)c2ccccc21)C(=O)CCC(=O)N1CCOCC1 [SL-11096] | 3.6 µM | – | – | – | – | – | – | – | – | – | – | – | IC50 [9]: 3.8 µM
O=C1C=C(OCCCCCNc2c3ccccc3nc3ccccc23)c2ccccc2C1=O [SL-11059, Acridine-quinone] | 4.3 µM | – | – | – | – | – | – | – | – | – | – | – | –
